The values below come from US6458781B1, “Substituted diarylalkyl amides as calcium channel antagonists” (priority 1998, dated 2002).

Counter-ions that a name gives are not always drawn.

Assay [1] has as its target T1, N-type calcium channels in IMR32 human neuroblastoma cells (Homo sapiens, UniProt Q00975).
T1 construct: expressing neuronal N-type calcium channels upon differentiation, was used for this assay; host or cells: IMR32 human neuroblastoma cells differentiated with dibutyryl cAMP and 5-bromo-2-deoxyuridine
The assay can be described thus: FLPIMR assay (FLIPR, IMR32 cells). It counts as cell-based. To be noted: nitrendipine present, read-out: FLP IMR IC50. How it is done:
In Vitro Protocol: FLPIMR Assays
Calcium flux through voltage-sensitive calcium channels was assessed by time-resolved monitoring of the fluorescence of pre-loaded intracellular calcium-sensitive dyes using FLIPR, a fluorescent image plate reader (Molecular Devices Co.). The IMR32 human neuroblastoma cell line (ATCC, CRL-127), expressing neuronal N-type calcium channels upon differentiation, was used for this assay. IMR32 cells were grown in MEM media (Gibco BRL, 11095-080), supplemented with 10% fetal bovine serum (Gibco BRL, 26140-087), 1% antibiotic-antimycotic (Gibco BRL, 15240-096), 1% L-glutamine (Gibco BRL, 25030-032). Cells, grown to confluency, were differentiated for a period of 7-10 days, or longer, by adding 1 mM dibutyryl cAMP (Sigma D-0627) and 2.5 μM 5-bromo-2-deoxyuridine (Sigma B-9285) to the media. The differentiation media was fed continuously to cells until the cells were used in an experiment.
Differentiated cells were removed from T150 flasks by aspirating media and adding 10 mL harvesting solution consisting of 0.5 mM EDTA in DPBS without calcium or magnesium (Gibco BRL, 14190-144). Cells were then centrifuged at 1500 rpm (≈500 g) for 3 minutes in a Beckman tabletop centrifuge in order to remove the harvesting solution. Cells were resuspended in 10 mL of media containing 1 μM Oregon Green 488 Bapta-1 dye (Molecular Probes, O-6807) and placed in a 37° C. shaking waterbath for 1 hour. The dye-containing media was then diluted with 40 mL buffer (composition in mM: 1.25 CaCl2, 1.2 MgSO4, 11 glucose, 10 HEPES, 3.0 KCl, 137.0 NaCl, pH 7.4 with Tris base) and cells were centrifuged at 1500 rpm (≈500 g) for 3 minutes. Cells were resuspended and washed a second time with 40-50 mL incubation buffer. After centrifugation, cells were resuspended and 200 μL aliquots were plated on black-sided 96-well plates (Costar, 3603) for use in FLIPR. The plates of cells were centrifuged at 750 rpm (≈100 g) for 1.5 minutes to settle the cells to the bottom of the wells. Cells were given one final wash at setting BF1F in a Denley Cellwash (Labsystems, CW018B). The residual buffer volume was adjusted to 50 μL. A 5-minute drug-preincubation period at 35° C. was initiated when 50 μL of drug-containing buffer was pipetted into the cell plate with the 96-well pipettor integrated in the FLIPR apparatus. Nitrendipine, at a concentration of 4 μM, was included in this buffer, in addition to compounds of the present invention at various concentrations. […] Fluorescent counts were monitored at 20 s intervals for 360 s, beginning 60 s prior to the delivery of drug-containing buffer. Following drug addition, 100 μL aliquots of a high K^+, depolarizing stimulus (composition in mM: 1.25 CaCl2, 1.2 MgSO4, 11 glucose, 10 HEPES, 140.0 KCl, pH 7.4 with Tris base) were added to each well, and fluorescence was monitored at 1 s intervals for 120 s, beginning 10 s prior to the stimulus addition. CCD camera exposure time was 0.4 s; laser excitation was at 488 nm with a power of 0.2-0.5W; and a 510 to 560 nm bandpass interference filter preceded the camera.
Data was analyzed as a summation of fluorescent counts above basal during the stimulation period (an approximation of area under the curve), after normalizing the data with a spatial uniformity correction (for variations in laser illumination and cell density) and a negative control correction (zero calcium increase defined as the fluorescence reading in the presence of saturating pharmacologic block of the N-type calcium channel). […] This component was not included in any calculations.
Drug effects were expressed as percent inhibition of fluorescence from an average of 8 K^+-stimulated wells which were pre-treated in the drug incubation period with buffer only. Data was analyzed using FLIPR software and Microsoft Excel spreadsheet software.

The test system of assay [2] is acetic acid-induced writhing in Swiss-Webster mice. Kind of assay: Anti-writhing test in mice (AW). It counts as in vivo. To be noted: 10 mg/kg. From the text: Anti-Writhing Test in Mice (AW) Test Protocol
The purpose of this test is to evaluate drugs for analgesic-like activity. The AW test determines the effect of drugs on the response to a presumed painful stimulus in mice and is used as a preliminary in vivo procedure for the identification of potential analgesic agents.
Known analgesics with low, moderate, or high efficacy in man allow mice to tolerate intra-peritoneal administration of dilute acetic acid as evidenced by lesser incidence of writhing movements. The AW test measures the nociceptive response to acetic acid in mice and provides an objective, reliable, and quantitative estimate of efficacy and potency of potential analgesic compounds. This test serves as a preclinical predictor of analgesic activity.
Subjects are male Swiss-Webster mice (25-35 g).
Compounds are dissolved or suspended in physiological saline containing 2% Emulphor. Suspensions are subjected to ultrasonication for 3 minutes. Drug doses are expressed as the active moiety and are normally administered to mice (10, 30, and 100 mg/kg IP, SC, PO, or IM) in a volume of 10 mL/kg, 1 hour prior to testing; ICV doses (in μg/kg) are administered in a volume of 0.5 mL/kg, 5 minutes prior to testing. Animals dosed PO are fasted for 16 hours prior to dosing. Groups of eight mice are tested with each dose or the vehicle solution (control group).
Mice are treated with a dilute solution of acetic acid (0.6%, 10 mL/kg IP) which elicits writhing. In four successive trials, one pair of mice from each treatment group is placed in one of four adjacent clear plexiglas chambers (4 in×4 in×4 in). This allows the simultaneous observation of four pairs of mice representing all treatments and controls throughout the test. Writhing movements (abdominal contractions, stretching of the torso and hind legs, and concave arching of the back) are counted for 5 minutes commencing 7 minutes after acetic acid administration.
Drug effects on acetic acid-induced writhing are expressed as percent suppression of writhing relative to the vehicle-treated control group run in parallel with treated animals. The writhing tallies from pairs of animals are summed for each treatment and are divided by the summed writhing in the control group. The ED50s for suppression of writhing are determined by nonlinear regression analysis.
Background: An intraperitoneal irritant provokes the stretching counted in writhing tests.

T1 sequence (Q00975 whole entry): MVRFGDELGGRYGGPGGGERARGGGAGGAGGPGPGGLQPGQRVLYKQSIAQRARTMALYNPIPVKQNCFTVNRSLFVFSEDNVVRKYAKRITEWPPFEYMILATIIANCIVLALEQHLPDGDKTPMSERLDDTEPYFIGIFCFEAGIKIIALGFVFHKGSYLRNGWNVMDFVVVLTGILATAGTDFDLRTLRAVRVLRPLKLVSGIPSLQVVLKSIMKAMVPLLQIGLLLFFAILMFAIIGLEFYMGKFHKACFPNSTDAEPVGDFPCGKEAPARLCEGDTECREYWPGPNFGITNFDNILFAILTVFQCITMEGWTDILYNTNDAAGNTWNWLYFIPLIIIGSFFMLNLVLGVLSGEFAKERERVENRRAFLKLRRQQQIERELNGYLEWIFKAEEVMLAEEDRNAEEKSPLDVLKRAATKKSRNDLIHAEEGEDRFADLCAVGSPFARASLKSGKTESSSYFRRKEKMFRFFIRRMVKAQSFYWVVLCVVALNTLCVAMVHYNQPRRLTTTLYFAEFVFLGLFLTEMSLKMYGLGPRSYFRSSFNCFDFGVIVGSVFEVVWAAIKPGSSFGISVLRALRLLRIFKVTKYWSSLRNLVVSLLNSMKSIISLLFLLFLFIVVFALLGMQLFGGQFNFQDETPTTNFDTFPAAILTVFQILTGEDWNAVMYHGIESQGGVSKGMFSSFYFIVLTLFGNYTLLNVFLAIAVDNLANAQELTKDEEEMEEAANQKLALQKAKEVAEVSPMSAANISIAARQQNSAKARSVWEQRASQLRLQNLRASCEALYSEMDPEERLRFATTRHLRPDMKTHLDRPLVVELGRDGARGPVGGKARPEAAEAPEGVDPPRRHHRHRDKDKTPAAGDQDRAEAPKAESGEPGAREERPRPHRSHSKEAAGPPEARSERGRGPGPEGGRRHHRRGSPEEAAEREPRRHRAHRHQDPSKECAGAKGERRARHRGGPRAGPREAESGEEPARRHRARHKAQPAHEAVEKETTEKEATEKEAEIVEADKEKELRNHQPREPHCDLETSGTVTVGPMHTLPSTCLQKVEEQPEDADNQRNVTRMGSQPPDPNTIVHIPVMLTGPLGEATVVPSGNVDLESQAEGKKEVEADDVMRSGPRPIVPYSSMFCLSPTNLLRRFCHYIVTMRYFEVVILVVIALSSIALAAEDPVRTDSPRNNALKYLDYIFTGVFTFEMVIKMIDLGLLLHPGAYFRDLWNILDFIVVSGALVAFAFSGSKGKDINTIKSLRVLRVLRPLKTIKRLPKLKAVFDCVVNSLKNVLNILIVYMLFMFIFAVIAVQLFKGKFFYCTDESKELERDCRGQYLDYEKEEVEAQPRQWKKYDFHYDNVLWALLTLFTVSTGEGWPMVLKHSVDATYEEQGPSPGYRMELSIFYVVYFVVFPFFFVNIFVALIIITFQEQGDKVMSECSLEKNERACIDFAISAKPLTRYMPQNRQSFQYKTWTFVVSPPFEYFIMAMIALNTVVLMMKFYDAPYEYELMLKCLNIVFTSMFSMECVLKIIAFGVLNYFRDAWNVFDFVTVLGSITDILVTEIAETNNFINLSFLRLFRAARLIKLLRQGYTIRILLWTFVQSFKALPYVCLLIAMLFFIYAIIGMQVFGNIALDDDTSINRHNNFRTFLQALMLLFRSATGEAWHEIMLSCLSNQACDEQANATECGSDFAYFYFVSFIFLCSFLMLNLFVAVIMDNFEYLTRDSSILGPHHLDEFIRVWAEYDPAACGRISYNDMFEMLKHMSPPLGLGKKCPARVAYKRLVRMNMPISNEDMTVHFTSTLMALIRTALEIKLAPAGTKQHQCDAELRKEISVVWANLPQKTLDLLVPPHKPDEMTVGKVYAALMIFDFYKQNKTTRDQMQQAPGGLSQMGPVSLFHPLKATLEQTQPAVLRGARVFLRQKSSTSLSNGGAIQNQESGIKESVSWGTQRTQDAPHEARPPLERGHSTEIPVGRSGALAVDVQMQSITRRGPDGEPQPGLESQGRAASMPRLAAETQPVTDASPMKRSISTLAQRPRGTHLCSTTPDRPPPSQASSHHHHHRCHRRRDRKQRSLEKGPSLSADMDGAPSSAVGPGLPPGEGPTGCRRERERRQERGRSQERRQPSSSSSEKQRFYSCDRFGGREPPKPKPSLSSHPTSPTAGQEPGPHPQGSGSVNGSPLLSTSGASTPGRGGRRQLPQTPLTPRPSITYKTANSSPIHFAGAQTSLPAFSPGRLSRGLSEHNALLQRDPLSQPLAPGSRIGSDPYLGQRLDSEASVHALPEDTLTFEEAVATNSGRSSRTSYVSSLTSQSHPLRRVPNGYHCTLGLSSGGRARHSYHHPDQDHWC
T1 sequence (P54289 25-956 partner limits assumed): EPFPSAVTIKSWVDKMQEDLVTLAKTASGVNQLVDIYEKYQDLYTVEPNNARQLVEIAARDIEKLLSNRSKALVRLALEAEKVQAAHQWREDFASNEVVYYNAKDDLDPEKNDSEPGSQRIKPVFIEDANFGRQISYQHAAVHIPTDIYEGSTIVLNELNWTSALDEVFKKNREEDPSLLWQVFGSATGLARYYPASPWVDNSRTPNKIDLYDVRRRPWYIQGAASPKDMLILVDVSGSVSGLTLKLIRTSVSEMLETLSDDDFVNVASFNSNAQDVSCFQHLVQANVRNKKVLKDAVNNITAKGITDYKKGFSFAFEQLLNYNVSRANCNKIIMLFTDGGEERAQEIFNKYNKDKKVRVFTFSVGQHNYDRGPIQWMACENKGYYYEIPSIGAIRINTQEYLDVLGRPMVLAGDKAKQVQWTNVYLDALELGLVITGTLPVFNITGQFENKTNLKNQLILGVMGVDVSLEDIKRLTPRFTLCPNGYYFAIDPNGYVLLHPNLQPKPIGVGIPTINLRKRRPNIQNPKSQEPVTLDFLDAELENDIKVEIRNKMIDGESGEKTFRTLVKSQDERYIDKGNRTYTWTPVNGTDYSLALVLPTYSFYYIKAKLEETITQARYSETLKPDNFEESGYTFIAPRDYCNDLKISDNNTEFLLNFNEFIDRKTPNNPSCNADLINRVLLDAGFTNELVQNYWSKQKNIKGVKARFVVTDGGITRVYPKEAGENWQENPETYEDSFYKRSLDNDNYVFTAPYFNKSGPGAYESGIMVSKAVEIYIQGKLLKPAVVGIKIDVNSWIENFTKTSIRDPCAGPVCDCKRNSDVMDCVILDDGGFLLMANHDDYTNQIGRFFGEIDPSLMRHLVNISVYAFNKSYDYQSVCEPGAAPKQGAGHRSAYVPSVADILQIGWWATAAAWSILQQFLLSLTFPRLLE
T1 sequence (P54289 957-1103 partner limits assumed): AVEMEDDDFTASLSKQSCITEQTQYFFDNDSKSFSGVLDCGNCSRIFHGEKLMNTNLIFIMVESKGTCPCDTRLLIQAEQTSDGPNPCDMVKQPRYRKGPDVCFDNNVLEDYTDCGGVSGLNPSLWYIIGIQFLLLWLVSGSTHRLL
T1 sequence (Q02641 whole entry partner): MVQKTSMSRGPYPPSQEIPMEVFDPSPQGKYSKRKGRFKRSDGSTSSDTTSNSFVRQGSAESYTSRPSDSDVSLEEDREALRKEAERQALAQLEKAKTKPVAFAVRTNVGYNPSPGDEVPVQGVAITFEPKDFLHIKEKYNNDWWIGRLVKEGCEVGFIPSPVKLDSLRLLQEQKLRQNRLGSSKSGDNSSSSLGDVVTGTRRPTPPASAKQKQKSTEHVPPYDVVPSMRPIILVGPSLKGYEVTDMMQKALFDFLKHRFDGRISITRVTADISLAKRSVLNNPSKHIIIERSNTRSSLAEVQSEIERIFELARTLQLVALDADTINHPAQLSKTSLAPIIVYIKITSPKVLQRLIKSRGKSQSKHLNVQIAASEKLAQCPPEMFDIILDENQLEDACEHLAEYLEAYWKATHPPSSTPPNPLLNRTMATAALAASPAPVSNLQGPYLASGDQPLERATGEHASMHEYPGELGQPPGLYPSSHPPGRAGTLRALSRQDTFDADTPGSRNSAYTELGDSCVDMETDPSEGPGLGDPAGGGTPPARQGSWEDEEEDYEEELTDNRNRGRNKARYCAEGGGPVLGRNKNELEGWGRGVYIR

On to `CN[C@H](CC(C)C)C(=O)NCCCC(c1ccc(F)cc1)c1ccc(F)cc1` [Example 71, (R)-4-Methyl-2-methylamino-pentanoic acid [4,4-bis-(4-fluorophenyl)-butyl]-amide monohydrochloride], for which, in assay [1], the IC50 was determined as 2500 nM. Besides, the “Anti-Writhing % Protection (dose)” value in assay [2] is 33.9% @ 10 mg/kg.

Consider `CC(C)C[C@H](O)C(=O)NCCCC(c1ccc(F)cc1)c1ccc(F)cc1` [Example 72, (S)-2-Hydroxy-4-methyl-pentanoic acid [4,4-bis-(4-fluoro-phenyl)-butyl]-amide], for which the 50% inhibitory concentration (IC50) in assay [1] was determined as 1900 nM.

For the compound `CN[C@H](C(=O)NCCCC(c1ccc(F)cc1)c1ccc(F)cc1)C(C)C` [Example 73, (S)-3-Methyl-2-methylamino-butanoic acid [4,4-bis-(4-fluorophenyl)-butyl]-amide monohydrochloride], the 50% inhibitory concentration (IC50) in assay [1] was found to be 3900 nM. Also, the “Anti-Writhing % Protection (dose)” value in assay [2] was found to be 90.4% @ 10 mg/kg.

With `CNCC(=O)NCCCC(c1ccc(F)cc1)c1ccc(F)cc1` [Example 74, N-[4,4-Bis-(4-fluoro-phenyl)-butyl]-2-methylamino-acetamide], the IC50 in assay [1] worked out at 2900 nM.

Regarding `CN[C@@H](CNCCCC(c1ccc(F)cc1)c1ccc(F)cc1)CC(C)C` [Example 77, (R)-N^1-[4,4-Bis-(4-fluoro-phenyl)-butyl]-4-N^2-dimethyl-pentane-1,2-diamine], the half-maximal inhibitory concentration (IC50) in assay [1] was determined as 2200 nM. Besides, the “Anti-Writhing % Protection (dose)” value in assay [2] turned out to be 43.4% @ 10 mg/kg.

For `CC(C)CN(C)CC(=O)NCCCC(c1ccc(F)cc1)c1ccc(F)cc1` [Example 78, N-[4,4-Bis-(4-fluoro-phenyl)-butyl]-2-(isobutyl-methyl-amino)-acetamide], in assay [1], the 50% inhibitory concentration (IC50) came out at 1600 nM. Further, in assay [2], the “Anti-Writhing % Protection (dose)” value came to 0% @ 10 mg/kg.

Turning to “(S)-N^1-[4,4-Bis-(4-fluoro-phenyl)-butyl]-4-N^2-dimethyl-pentane-1,2-diamine [Example 76]”, the half-maximal inhibitory concentration (IC50) in assay [1] worked out at 2200 nM. Besides, the “Anti-Writhing % Protection (dose)” value in assay [2] was 20.9% @ 10 mg/kg.

What is called IC50 is the concentration needed to halve the response being measured.
